Structures can show the parent of a compound that is named as a salt.
Experiments:
[1] = tested on: Dopamine (DA) in Prefrontal Cortex; test: Microdialysis in awake and freely moving rats, DA in prefrontal cortex; type: in vivo, rat; conditions: 50 μmol/kg s.c., awake freely moving rats
From the text: (§1) Male Sprague-Dawley rats weighing 220-320 g were used throughout the experiments. Before the experiment the animals were group housed, five animals in each cage, with free access to water and food. The animals were housed at least one week after arrival prior to surgery and use in the experiments. Each rat was used only once for microdialysis.
(§2) We use a modified version (Waters et al., 1994) of the I-shaped probe (Santiago M & Westerink B H C, 1990). The dialysis membrane we use is the AN69 polyacrylonitrile/sodiummethalylsulfonate copolymer (HOSPAL; o.d./i.d. 310/220 μm: Gambro, Lund, Sweden). In the dorsal striatum we use probes with an exposed length of 3 mm of dialysis membrane and in the prefrontal cortex the corresponding length is 2.5 mm. The rats were operated under isoflurane inhalationanesthesia while mounted into a Kopf stereotaxic instrument. Co-ordinates were calculated relative to bregma; dorsal striatum AP +1, ML ±2.6, DV −6.3; Pf cortex, AP +3.2, 8° ML ±1.2, DV −4.0 according to (Paxinos G & Watson C, 1986). The dialysis probe was positioned in a burr hole under stereotaxic guidance and cemented with phosphatine dental cement.
(§3) The rats were housed individually in cages for 48 h before the dialysis experiments, allowing them to recover from surgery and minimizing the risk of drug interactions with the anaesthetic during the following experiments. During this period the rats had free access to food and water. On the day of experiment the rats were connected to a micro perfusion pump via a swiwel and were replaced in the cage where they could move freely within its confinements. The perfusion medium was a Ringer's solution containing in mmol/l: NaCl; 140, CaCl2; 1.2, KCl; 3.0, MgCl2; 1.0 and ascorbic acid; 0.04 according to (Moghaddam B & Bunney B S, 1989). The pump was set to a perfusion speed of 2 μl/min and 40 μl samples were collected every 20 min. Each sample was analyzed at two HPLC systems. On an autoinjector (CMA 200) with a 10-port valve (Valco C10WE), holding two sample loops in series (4 μl and 20 μl), each brain dialysate sample is loaded in both loops simultaneously. […] The currents generated by the two EC detectors are converted to digital data and evaluated using Chromeleon software (Dionex) on a PC. The method sample turn over time was 4.5 min and two parallel experiments are normally analyzed simultaneously on the system. […]

[2] = tested on: Norepinephrine (NA) in Striatum; test: Microdialysis in awake and freely moving rats, NA in striatum; type: in vivo, rat; conditions: 50 μmol/kg s.c., awake freely moving rats
From the text: as §1, §2, §3

[3] = tested on: Dopamine (DA) in Striatum; test: Microdialysis in awake and freely moving rats, DA in striatum; type: in vivo, rat; conditions: 50 μmol/kg s.c., awake freely moving rats
From the text: as §1, §2, §3

[4] = tested on: Norepinephrine (NA) in Prefrontal Cortex; test: Microdialysis in awake and freely moving rats, NA in prefrontal cortex; type: in vivo, rat; conditions: 50 μmol/kg s.c., awake freely moving rats
From the text: as §1, §2, §3

[5] = tested on: Serotonin (5-HT) in Striatum; test: Microdialysis in awake and freely moving rats, 5-HT in striatum; type: in vivo, rat; conditions: 50 μmol/kg s.c., awake freely moving rats
From the text: as §1, §2, §3

[6] = tested on: Serotonin (5-HT) in Prefrontal Cortex; test: Microdialysis in awake and freely moving rats, 5-HT in prefrontal cortex; type: in vivo, rat; conditions: 50 μmol/kg s.c., awake freely moving rats
From the text: as §1, §2, §3

| melting point [°C] | Compound | DA PFC ± SEM, maximum effect compared to baseline values [1] | NA Stri ± SEM, maximum effect compared to baseline values [2] | DA Stri ± SEM, maximum effect compared to baseline values [3] | NA PFC ± SEM, maximum effect compared to baseline values [4] | 5-HT Stri ± SEM, maximum effect compared to baseline values [5] | 5-HT PFC ± SEM, maximum effect compared to baseline values [6] |
| --- | --- | --- | --- | --- | --- | --- | --- |
| 94 to 98 | CCN1CCC(OC)(c2cccc(F)c2F)C1 (centres unmarked) (as salt: fumaric acid salt) [Example 13, 3-(2,3-difluorophenyl)-1-ethyl-3-methoxypyrrolidine] |  |  |  |  |  |  |
| 135 to 136 | CCN1CCC(OC)(c2ccc(F)c(F)c2)C1 (centres unmarked) (as salt: oxalic acid salt) [Example 10, 3-(3,4-difluorophenyl)-1-ethyl-3-methoxypyrrolidine] |  |  |  |  |  |  |
| 104 to 106 | CCN1CCC(OC)(c2cccc(F)c2F)C1 (single isomer, unassigned; (+)) (as salt: fumaric acid salt) [Example 6, (+)-3-(2,3-difluorophenyl)-1-ethyl-3-methoxypyrrolidine] |  |  |  |  |  |  |
| 183 to 185 | COC1(c2cccc(Cl)c2F)CCNC1 (single isomer, unassigned; (+)) (as salt: oxalic acid salt) [Example 1, (+)-3-(3-chloro-2-fluorophenyl)-3-methoxypyrrolidine] |  |  |  |  |  |  |
| 182 to 184 | COC1(c2cccc(F)c2F)CCNC1 (single isomer, unassigned; (+)) (as salt: oxalic acid salt) [Example 5, (+)-3-(2,3-difluorophenyl)-3-methoxypyrrolidine] |  |  |  |  |  |  |
| 185 to 187 | COC1(c2cc(F)cc(F)c2)CCNC1 (single isomer, unassigned; (+)) (as salt: oxalic acid salt) [Example 14, (+)-3-(3,5-difluorophenyl)-3-methoxypyrrolidine] |  |  |  |  |  |  |
| 105 to 107 | CCN1CCC(OC)(c2cccc(F)c2F)C1 (single isomer, unassigned; (-)) (as salt: fumaric acid salt) [Example 8, (−)-3-(2,3-difluorophenyl)-1-ethyl-3-methoxypyrrolidine] |  |  |  |  |  |  |

Second part, the compound before the results:

| Compound | melting point [°C] | DA PFC ± SEM, maximum effect compared to baseline values [1] | NA Stri ± SEM, maximum effect compared to baseline values [2] | DA Stri ± SEM, maximum effect compared to baseline values [3] | NA PFC ± SEM, maximum effect compared to baseline values [4] | 5-HT Stri ± SEM, maximum effect compared to baseline values [5] | 5-HT PFC ± SEM, maximum effect compared to baseline values [6] |
| --- | --- | --- | --- | --- | --- | --- | --- |
| CCN1CCC(OC)(c2cccc(Cl)c2F)C1 (single isomer, unassigned; (+)) (as salt: fumaric acid salt) [Example 2, (+)-3-(3-chloro-2-fluorophenyl)-1-ethyl-3-methoxypyrrolidine] | 131 to 133 |  |  |  |  |  |  |
| COC1(c2cccc(Cl)c2F)CCNC1 (single isomer, unassigned; (+)) [Example 1, (+)-3-(3-chloro-2-fluorophenyl)-3-methoxypyrrolidine] |  | 459 ± 103% of control | 164 ± 22% of control | 122 ± 8% of control | 660 ± 38% of control | 350 ± 28% of control | 327 ± 58% of control |
| COC1(c2cccc(F)c2F)CCNC1 (single isomer, unassigned; (+)) [Example 5, (+)-3-(2,3-difluorophenyl)-3-methoxypyrrolidine] |  | 353 ± 61% of control | 168% of control | 116 ± 0% of control | 437 ± 25% of control | 296 ± 55% of control | 260 ± 19% of control |
| CCN1CCC(OC)(c2cccc(F)c2F)C1 (single isomer, unassigned; (+)) [Example 6, (+)-3-(2,3-difluorophenyl)-1-ethyl-3-methoxypyrrolidine] |  | 297 ± 18% of control | 113% of control | 133 ± 9% of control | 285 ± 17% of control | 138 ± 9% of control | 157 ± 6% of control |
| CCN1CCC(OC)(c2cccc(F)c2F)C1 (single isomer, unassigned; (-)) [Example 8, (−)-3-(2,3-difluorophenyl)-1-ethyl-3-methoxypyrrolidine] |  | 252% of control | 169 ± 28% of control | 119 ± 3% of control | 282% of control | 187% of control | 197% of control |

— patent US9035073B2, “3-phenyl-3-methoxy-pyrrolidine derivatives useful as modulators of cortical catecholaminergic neurotransmission” (INTEGRATIVE RESEARCH LABORATORIES SWEDEN AB, priority 2008, dated 2015)
